From US9861640B2, “Medicament for treatment of Alzheimer's disease” (KEMPHYS LTD., priority 2013, dated 2018)

How the values were obtained:
[1] = system: RA response element (RARE); assay: RARE luciferase reporter gene assay in Neuro2a cells; format: cell-based, mouse; settings: Am80 0.2-5 μM, with or without HX630 5 μM, 24 h
Protocol: Since the effective concentration of Am80 in vivo has not been determined, we considered that a relatively high concentration of Am80 should be used in the in vitro study in order to ensure adequate stimulation. […] Moreover, the combination of HX630 (5 μM) with Am80 in the range of 0.2-5 μM also had little effect. Therefore, the concentrations of Am80 and HX630 were both set at 5 μM for the in vitro study.
Neuro2a cells were seeded in 24-well plates (2×10^5 cells/well) and transfected with 0.2 μg of pGL3-RARE-Luc (#13468; Addgene) or pGL3-Luc vector (Promega) and 0.05 μg of Renilla luciferase vector (phRL-TK) (Promega), using Effectene reagent (Qiagen) according to the manufacturer's protocol. Five hours after transfection, cells were exposed to Am80 (5 μM) and/or HX630 (5 μM) in the medium for 24 h. Luciferase activities were determined in cell lysates. Firefly luciferase activity was normalized to that of Renilla luciferase for each well.

[2] = system: IL-4; assay: IL-4 sandwich ELISA of hippocampus, correlation with MWM; format: in vivo, mouse; settings: APP23 mice; day 18; P=0.096 (HX630), P=0.087 (Am80/HX630)
[3] = system: CD36; assay: Immunoblot of CD36 in brains of APP23 mice; format: in vivo, mouse; settings: Am80 0.5 and/or HX630 5 mg/kg/d, day 18, whole-cell extracts
Protocol: APP23 mice begin forming amyloid deposits when they are 6 months old, but memory deficits in the MWM test appear quite early (before 3 months of age). Here, we used 8.5-month-old male APP23 mice and their WT littermates (C57BL/6J). We used stratified random sampling to divide mice (four to six per cage) into four groups to equalize the mean body weight of the study groups: mice given 0.5 mg/kg/d Am80, those given 5 mg/kg/d HX630, those given the mixture of 0.5 mg/kg/d Am80 and 5 mg/kg/d HX630, and those given the vehicle. Am80 and HX630 were suspended in 0.5% (w/v) carboxymethylcellulose solution and were orally administered to mice at 0.5 mg/kg (Am80) or 5 mg/kg (HX630) for 17 consecutive days (once daily at 18:00). Control animals received the same volume of 0.5% (w/v) carboxymethylcellulose solution orally, without the other compounds. We set the 0.5 mg/kg/d dose for Am80 on the basis that this had been found effective in other in vivo studies, such as those by Kawahara et al. and Ishido and Shudo [37]. Higher doses of Am80 (3 mg/kg/d and 6 mg/kg/d) were also orally administered to mice for 17 consecutive days. Animals were weighed once a week. Mice were subjected to behavioral testing on days 15-18 of the first oral administration of the compounds (at 19:00-23:00). On days 15-17 (not day 18), animals received the compounds at 24:00, after behavioral testing. […]

SMILES | RARE-luciferase activity in Neuro2a cells [1] | hippocampal IL-4 levels [2] | CD36 protein level in brain (immunoblot) [3]
CC1(C)CCC(C)(C)c2cc(NC(=O)c3ccc(C(=O)O)cc3)ccc21 [Am80, 4-{(5,6,7,8-tetrahydro-5,5,8,8-tetramethyl-2-naphthalenyl)carbamoyl}benzoic acid] | hardly altered |  | 
CN1c2ccccc2N=C(c2ccc(C(=O)O)cc2)c2cc3c(cc21)C(C)(C)CCC3(C)C [HX630, 4-[5H-2,3-(2,5dimethyl-2,5-hexano)-5-methyldibenzo[b,e]-diazepin-11-yl]benzoic acid] |  | the increase was statistically insignificant | increased
